Measurements reported in paper PMC8194028, “Engineering and characterization of human β-defensin-3 and its analogues and microcin J25 peptides against Mannheimia haemolytica and bovine neutrophils” (Veterinary Research, 2021).
Converted amounts (≈) assume the structure as drawn. Where two headings read alike, the source gives them in different places. Positions of bridges follow the written chain, without caps; N, C: chain ends. Residues, ends and D or L forms follow the SMILES beside them. No end group written: not given here.

What was measured:
[1] = cited from earlier work
Description: In this context, antimicrobial peptides (AMPs) have received significant attention as alternatives to antibiotics. […] Recent work by the […] laboratory has shown that treatment with naturally expressed Tracheal Antimicrobial Peptide, a defensin, neither killed M. haemolytica nor prevented the development of lung disease. Coupled with the fact that M. haemolytica, in normal condition, is prevented from e ...

M. haemolytica-A1 = assay type: cell-based, Mannheimia haemolytica; conditions: for No. of CFU: one of three experiments
Protocol: Wild-type HBD3, its analogues, and MccJ25 were tested against M. haemolytica-A1 using optical density method and colony count assay. Briefly, an aliquot (5 µL) from bacteria suspension stored at −80 °C was put in 5 mL BHI broth at 37 °C for 18 h. An aliquot (10 µL) from this overnight culture was added to fresh BHI broth and incubated at 37 °C for a further 5 h to obtain mid-log phase bacteria. The culture was then centrifuged for 10 min at 800 g at 4 °C. The supernatant was discarded and the bacterial pellet was resuspended in cold, sterile sodium phosphate buffer (SPB) and washed again at 800g for 10 min at 4 °C. The pellet was resuspended in 5 mL SPB. To calculate the number of CFU/mL in the 5 h culture, six successive tenfold dilutions were made. From the last dilution 100 µL was plated in duplicate on petri dishes containing BHI agar and incubated for 24 h. After 24 h the colonies were counted in the two petri dishes and then averaged. Total number of colonies was the average number of colonies multiplied by the dilution factor.
All assays were carried out in sterile 96-well polypropylene flat-bottomed plates using a broth microdilution method. Two-fold serial dilutions of peptide were made in SPB, and 50 µL of each concentration of peptide was added to the wells of the assay plate. […] Positive control wells contained 50 µL of the bacteria with 50 µL of 64 µg/mL ampicillin and negative control wells contained 50 µL of SPB and 50 µL bacterial suspension. Sterility control well contained 100 µL BHI broth to test and ensure that broth was not contaminated.
The plates were sealed with aluminum foil and were incubated at 37 °C for 2 h then 50 µL of the contents of the well were pipetted on BHI agar plates and incubated for 24 h. The bactericidal activity was expressed as the MBC which is the concentration at which 99.9% of the colonies are killed and the Lethal dose 50 (LD50) at which 50% or more bacteria are killed. All experiments were run in triplicates.
Peptides HBD3, its analogues and Mccj25 were assessed for Minimum bactericidal concentration (MBC). […] All the peptides have shown intermediate to potent killing activity towards M. haemolytica (Figures 2, 3). […] However, some published studies have taken final inoculum in the range of 10^4–10^5 cfu/mL [28].

bovine neutrophils [2] = assay: Chemotaxis assay, 48-well Boyden chamber; assay type: cell-based, cattle; conditions: peptide 50.0 μg/mL in lower well; 20 min at 37 °C; three independent experiments; ANOVA with Dunnett, P < 0.05
Protocol: (§1) Neutrophils were isolated from cattle using established methods and approved by the University of Saskatchewan’s Committee on Animal Care. For each individual animal, blood was pooled into 50 mL tubes and diluted with an equal volume of PBS then 12.5 mL of the diluted blood was layered over 10 mL of Ficoll Paque PLUS (Sigma-Aldrich, St. Louis, USA) while taking care to preserve the interface between the two liquids. Following centrifugation at 400 g for 30 min at 20 °C with the brake turned off, the lymphocyte layer was discarded along with Ficoll and plasma. The pellet was washed in 20 mL PBS with centrifugation at 500 g with low brake for 10 min. The supernatant was discarded and the pellet was suspended in equal volume of sterile water and gently mixed for 20 s followed by addition of equal volume of 1.8% NaCl to restore tonicity. The mixture was centrifuged at 500 g for 10 min and followed by another washing and centrifugation at 4 °C. The resulting neutrophil pellet was resuspended in PBS. Bovine neutrophils, collected in the above manner had more than 92% purity, and their viability was greater than 95% based on Trypan blue exclusion assay. Therefore, we use the term neutrophils in the manuscript.
We used fMLP ([…]) as the chemoattractant. […] The cells within the filter pores were then counted in five random fields under light microscope at 40×. […]

bovine neutrophils [3] = assay: Migration inhibition assay (neutrophil migration towards fMLP); assay type: cell-based, cattle; conditions: neutrophils with 50.0 μg/mL peptide in upper well; fMLP 114 nM in lower well; 20 min at 37 °C; three independent experiments
Protocol: as §1
Since peptides can be immunomodulatory, migration inhibition was carried out to determine if the peptides inhibit neutrophil migration. […]

[4] = peptide 0.8 μg/mL, well row A (duplicate 1), final inoculum 5 × 10^5 cfu/mL
[5] = peptide 0.8 μg/mL, well row B (duplicate 2), final inoculum 5 × 10^5 cfu/mL
[6] = peptide 1.6 μg/mL, well row A (duplicate 1), final inoculum 5 × 10^5 cfu/mL
[7] = peptide 1.6 μg/mL, well row B (duplicate 2), final inoculum 5 × 10^5 cfu/mL
[8] = peptide 3.1 μg/mL, well row A (duplicate 1), final inoculum 5 × 10^5 cfu/mL
[9] = peptide 3.1 μg/mL, well row B (duplicate 2), final inoculum 5 × 10^5 cfu/mL
[10] = peptide 12.5 μg/mL, well row A (duplicate 1), final inoculum 5 × 10^5 cfu/mL
[11] = peptide 12.5 μg/mL, well row B (duplicate 2), final inoculum 5 × 10^5 cfu/mL
[12] = peptide 25.0 μg/mL, well row A (duplicate 1), final inoculum 5 × 10^5 cfu/mL
[13] = peptide 25.0 μg/mL, well row B (duplicate 2), final inoculum 5 × 10^5 cfu/mL
[14] = peptide 50.0 μg/mL, well row A (duplicate 1), final inoculum 5 × 10^5 cfu/mL
[15] = peptide 50.0 μg/mL, well row B (duplicate 2), final inoculum 5 × 10^5 cfu/mL
[16] = peptide 100.0 μg/mL, well row A (duplicate 1), final inoculum 5 × 10^5 cfu/mL, 2 h 37 °C, 50 μL plated, 24 h
[17] = peptide 100.0 μg/mL, well row B (duplicate 2), final inoculum 5 × 10^5 cfu/mL

Compound | No. of CFU (M. haemolytica-A1; [4]) | No. of CFU (M. haemolytica-A1; [5]) | No. of CFU (M. haemolytica-A1; [6]) | No. of CFU (M. haemolytica-A1; [7]) | No. of CFU (M. haemolytica-A1; [8]) | No. of CFU (M. haemolytica-A1; [9]) | No. of CFU (M. haemolytica-A1; [10]) | No. of CFU (M. haemolytica-A1; [11]) | No. of CFU (M. haemolytica-A1; [12]) | No. of CFU (M. haemolytica-A1; [13]) | No. of CFU (M. haemolytica-A1; [14]) | No. of CFU (M. haemolytica-A1; [15]) | No. of CFU (M. haemolytica-A1; [16]) | No. of CFU (M. haemolytica-A1; [17]) | MBC (M. haemolytica-A1; 2 h) | also measured
CC[C@H](C)[C@H](NC(=O)CNC(=O)[C@@H](NC(=O)[C@H](Cc1ccccc1)NC(=O)[C@H](Cc1ccc(O)cc1)NC(=O)[C@@H]1CCC(=O)NCC(=O)NCC(=O)N[C@@H](C)C(=O)NCC(=O)N[C@@H](Cc2cnc[nH]2)C(=O)N[C@@H](C(C)C)C(=O)N2CCC[C@H]2C(=O)N1)C(C)C)C(=O)NCC(=O)N[C@H](C(=O)N1CCC[C@H]1C(=O)N[C@H](C(=O)N[C@@H](CO)C(=O)N[C@@H](Cc1ccccc1)C(=O)N[C@@H](Cc1ccc(O)cc1)C(=O)NCC(=O)O)[C@@H](C)CC)[C@@H](C)O [MccJ25, Microcin J25] (GGAGHVPEYFVGIGTPISFYG-OH; lactam N-8) |  |  |  |  |  |  |  |  |  |  |  |  |  |  |  | Stability in the presence of many proteolytic enzymes [1]: stable
CC[C@H](C)[C@H](NC(=O)CNC(=O)[C@@H](NC(=O)[C@H](Cc1ccccc1)NC(=O)[C@H](Cc1ccc(O)cc1)NC(=O)[C@@H]1CCC(=O)NCC(=O)NCC(=O)N[C@@H](C)C(=O)NCC(=O)N[C@@H](Cc2c[nH]cn2)C(=O)N[C@@H](C(C)C)C(=O)N2CCC[C@H]2C(=O)N1)C(C)C)C(=O)NCC(=O)N[C@H](C(=O)N1CCC[C@H]1C(=O)N[C@H](C(=O)N[C@@H](CO)C(=O)N[C@@H](Cc1ccccc1)C(=O)N[C@@H](Cc1ccc(O)cc1)C(=O)NCC(=O)O)[C@@H](C)CC)[C@@H](C)O [MccJ25, Microcin J25] (GGAGHVPEYFVGIGTPISFYG-OH; lactam N-8 (inferred); C-terminus assumed) | >400 CFU | >400 CFU | >400 CFU | >400 CFU | >400 CFU | >400 CFU | 211 CFU | 253 CFU | 314 CFU | 310 CFU | 328 CFU | 230 CFU | 211 CFU | 275 CFU |  | MBC (M. haemolytica-A1; concentration at which 99.9% of the CFU in the final inoculum are killed, 2 h at 37 °C in SPB/BHI, then plated on BHI agar 24 h, final inoculum 1 × 10^5 to 1 × 10^6 cfu/mL, triplicates): 100 µg/mL (≈ 47.5 µM); LD50 (M. haemolytica-A1; lethal dose for ≥ 50% of bacteria, 2 h at 37 °C, then plated 24 h, final inoculum 1 × 10^5 to 1 × 10^6 cfu/mL, triplicates): 6.3 µg/mL; No. of CFU (M. haemolytica-A1; peptide 6.3 μg/mL, well row A (duplicate 1), final inoculum 5 × 10^5 cfu/mL): 289 CFU; No. of CFU (M. haemolytica-A1; peptide 6.3 μg/mL, well row B (duplicate 2), final inoculum 5 × 10^5 cfu/mL): 261 CFU
RGRKVVRRKK-OH [HBD3 10AA analogue] |  |  |  |  |  |  |  |  |  |  |  |  |  |  | 6.3 µg/mL | LD50 (M. haemolytica-A1; 18 h): ≥ 3.1 µg/mL; No. of CFU (M. haemolytica-A1; peptide 3.1 μg/mL, well row A (duplicate 1), final inoculum 10^4 cfu/mL): 7 CFU; No. of CFU (M. haemolytica-A1; peptide 3.1 μg/mL, well row B (duplicate 2), final inoculum 10^4 cfu/mL): 2 CFU; No. of CFU (M. haemolytica-A1; peptide 6.3 μg/mL, well row A (duplicate 1), final inoculum 10^4 cfu/mL): 4 CFU; No. of CFU (M. haemolytica-A1; peptide 6.3 μg/mL, well row B (duplicate 2), final inoculum 10^4 cfu/mL): 1 CFU; No. of CFU (M. haemolytica-A1; peptide 12.5 μg/mL, well row A (duplicate 1), final inoculum 10^4 cfu/mL): 4 CFU; No. of CFU (M. haemolytica-A1; peptide 12.5 μg/mL, well row B (duplicate 2), final inoculum 10^4 cfu/mL): 6 CFU; No. of CFU (M. haemolytica-A1; peptide 25.0 μg/mL, well row A (duplicate 1), final inoculum 10^4 cfu/mL): 4 CFU; No. of CFU (M. haemolytica-A1; peptide 25.0 μg/mL, well row B (duplicate 2), final inoculum 10^4 cfu/mL): 3 CFU; No. of CFU (M. haemolytica-A1; peptide 50.0 μg/mL, well row A (duplicate 1), final inoculum 10^4 cfu/mL): 4 CFU; No. of CFU (M. haemolytica-A1; peptide 50.0 μg/mL, well row B (duplicate 2), final inoculum 10^4 cfu/mL): 1 CFU; No. of CFU (M. haemolytica-A1; peptide 100.0 μg/mL, well row A (duplicate 1), final inoculum 10^4 cfu/mL): 0 CFU; No. of CFU (M. haemolytica-A1; peptide 100.0 μg/mL, well row B (duplicate 2), final inoculum 10^4 cfu/mL): 0 CFU
KEEQIGKVSTRGRKVVRRKK-OH [HBD3 20AA analogue] | >400 CFU | >400 CFU | >400 CFU | >400 CFU | 376 CFU | >400 CFU | 240 CFU | 170 CFU | 128 CFU | 151 CFU | 15 CFU | 4 CFU | 4 CFU | 1 CFU | 50.0 µg/mL | LD50 (M. haemolytica-A1; 2 h): 3.1 µg/mL; Sensitivity of M. haemolytica to the peptide (class by MBC) (M. haemolytica-A1; MBC assay, classification of ref 28): intermediately sensitive (as intermediately sensitive if MBC levels were 10–100 μg/mL); Chemotaxis of bovine neutrophils towards peptide (migrated neutrophils vs PBS) (bovine neutrophils [2]): chemotactic; Effect of peptide on neutrophil migration towards fMLP (bovine neutrophils [3]): none of the peptides inhibited migration
